Assay results taken from US11008308B2, “Quinazolinones as PARP14 inhibitors” (Ribon Therapeutics Inc., priority 2017, dated 2021).
Structures can show the parent of a compound that is named as a salt.

Columns and labels:
[1] = target: catalytic domain of human PARP14 (Homo sapiens (Human), UniProt Q460N5); assay: Enzymatic assay for inhibition of PARP14 (DELFIA, auto-modification by biotin-NAD); format: biochemical; conditions: 50 nM PARP14, 3 μM biotin-NAD
Description: An N-terminal His-TEV fusion tag was used to purify the protein from cell lysates. The His-TEV tag was left on the protein for use in the enzymatic assay.
Enzymatic inhibition of PARP14 was measured using a dissociation-enhanced lanthanide fluorescence immunoassay (DELFIA) monitoring the auto-modification of PARP14 by biotinylated nicotinamide adenine dinucleotide (biotin-NAD). 1 μL of a dose response curve of each test compound was spotted in 384-well nickel-coated white microplates (Thermo) using a Mosquito (TTP Labtech). Reactions were performed in a 50 μL volume by adding 40 μL of PARP14 in assay buffer (20 mM HEPES pH==8, 100 mM NaCl, 0.1% bovine serum albumin, 2 mM DTT and 0.002%0 Tween20), incubating with test compound at 25° C. for 30 min, then adding 10 μL of biotin-NAD (Biolog). The final concentrations of PARP14 and biotin-NAD are 50 nM and 3 μM, respectively. Reactions proceeded at 25° C. for 3 h, then were quenched with 5 μL of 10 mM unmodified nicotinamide adenine dinucleotide (Sigma-Aldrich). […] After a 5 min incubation the plate was read on an Envision platereader equipped with a LANCE/DELFIA top mirror (Perkin Elmer) using excitation of 340 nm and emission of 615 nm to measure the amount of Europium present in each well, informing on the amount of biotin-NAD that was transferred in the automodification reaction. […]

4T1 cells = assay: Tumor growth in 4T1 murine syngeneic model; format: in vivo, mouse (BALB/c); conditions: 4T1 orthotopic, female BALB/c mice, 500 mg/kg PO BID, study terminated on D20
Source text: FIGS. 3A and 4A illustrate that a PARP14 inhibitor (Example 235) reduces tumor growth in the murine syngeneic models (A) 4T1 and (B) LL/2. For the 4T1 study (FIGS. 3A and 3B), female BALB/c mice were inoculated orthotopically in the mammary fat pad with 1×10^5 4T1 cells (ATCC, CRL-2539™) for tumor development. Seven days after tumor inoculation, 16 mice with tumor size ranging from 41-78 mm^3 (average tumor size 56 mm^3) were selected and assigned into 2 groups using stratified randomization with 8 mice in each group based upon their tumor volumes. The treatments were started from the next day post randomization (defined as randomization day DO) and were treated with vehicle (0.5% methylcellulose+0.2% Tween 80), or the compound of Example 235 (500 mg/kg PO BID*21 days). The tumor sizes were measured three times per week during the treatment. The entire study was terminated on D20.
(§1) Statistical significance, calculated using 2 way ANOVA multiple comparisons in which each treatment group was compared to vehicle control, is indicated by an asterisk. Statistics were performed on groups with less than 20% animal loss (D20 for 4T1, D17 for LL/2). Survival benefit was determined for the LL/2 study (FIG. 4B). Individual mice were euthanized once they reached the termination endpoint (TV>2000 mm3). […]

LL/2 cells = assay: Tumor growth and survival in LL/2 murine syngeneic model; format: in vivo, mouse (C57BL/6); conditions: LL/2 subcutaneous, female C57BL/6 mice, 500 mg/kg PO BID, study terminated on D21
Source text: For the LL/2 study (FIGS. 4A-4C), female C57BL/6 mice were inoculated subcutaneously in the right flank with 5×10^5 LL/2 cells (ATCC, CRL-1642™) for tumor development. Five days after tumor inoculation, 16 mice with tumor size ranging from 37-72 mm^3 (average tumor size 51 mm^3) were selected and assigned into 2 groups using stratified randomization with 8 mice in each group based upon their tumor volumes. The treatments were started from the next day post randomization (defined as randomization day DO) and were treated with vehicle (0.5% methylcellulose+0.2% Tween 80), or the compound of Example 235 (500 mg/kg PO BID*21 days). The tumor sizes were measured three times per week during the treatment. The entire study was terminated on D21.
as §1, with “mm3). The time from treatment initiation to termination was deemed as its survival time and plotted in a Kaplan-Meier survival curve format. Mice remaining at study end date of 21 days were euthanized at day 21 after treatment initiation.” for “mm3).”

Chain of catalytic domain of human PARP14 (Q460N5 1611-1801): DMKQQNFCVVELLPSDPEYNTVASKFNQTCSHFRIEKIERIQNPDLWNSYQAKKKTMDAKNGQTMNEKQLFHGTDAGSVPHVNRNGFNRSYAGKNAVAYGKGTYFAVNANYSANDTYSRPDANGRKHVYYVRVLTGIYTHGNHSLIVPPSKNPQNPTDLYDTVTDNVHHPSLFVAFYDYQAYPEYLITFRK

IC50 [1] [µM]	Structure (SMILES)	Tumor growth inhibition versus vehicle group (4T1 cells) [%]	Tumor growth inhibition versus vehicle group (LL/2 cells) [%]
< 1	O=c1[nH]c(CSC2CCOCC2)nc2cc(N[C@H]3CCC[C@@H]3F)cc(F)c12 (racemic) [Example 305]		
> 10	Cc1cccc2c(=O)[nH]c(CS[C@@H]3CCC[C@H](CN(C)C)C3)nc12 (relative stereo) [Example 72, 2-((((cis)-3-((Dimethylamino)methyl)cyclohexyl)thio)methyl)-8-methyl quinazolin-4(3H)-one Trifluoroacetate]		
	O=c1[nH]c(CS[C@H]2CC[C@H](O)CC2)nc2cc(OCC3CC3)cc(F)c12 [Example 235, 7-(Cyclopropylmethoxy)-5-fluoro-2-(((trans-4-hydroxycyclohexyl)thio)methyl)quinazolin-4(3H)-one]	31	63
